Experimental findings from patent publication US20080051463A1, “ANTHRACENE COMPOUNDS AND THEIR USE FOR TREATING BENIGN AND MALIGNANT TUMOR DISORDERS” (AETERNA ZENTARIS GmbH, priority 2006, published 2008) are described below.

The subject of one data set is KB/HeLa cells. The data set is described as follows: Cell cycle analysis (G2/M arrest) in KB/HeLa cells. The data set is classed as cell-based. The conditions noted are these: Homo sapiens, 24 h, 24 hours at 37° C., 0.1-1000 nM, read-out: EC50 [nM] (50% cells in G2/M). As for the experimental part:
For the cell cycle analysis, KB/HeLa cells (ATCC CCL17) were treated with different concentrations (0.1-1000 nM) of the test substances at 37° C. for 24 hours.
The percentage of cells arrested in the G2/M phase of the cell cycle after treatment with compounds according to the invention and selected reference substances is shown in Table 9 below. The results were analysed using special analytical software (ModFit™).

Data set [1] has as its system RKOp27 human colon carcinoma cells. The data set is described as follows: Proliferation test, RKOp27 cell system without p27kiP1 expression. It counts as cell-based. The conditions noted are these: RKOp27 without expression of p27kiP1. An excerpt: (§1) The antiproliferative activity of the compounds 1, 2, 4, 6, 7, 9, 10, 11, 12 and 13 according to the invention was investigated in a proliferation test performed on established tumor cell lines (D. A. Scuderio et al. Cancer Res. 1988, 48: 4827-4833).
(§2) The test used determines the cellular dehydrogenase activity and makes it possible to determine cell viability and determine cell number indirectly.
(§3) The cell lines used are the human cervical carcinoma cell line KB/HeLa (ATCC CCL17), the ovarian adenocarcinoma cell line SKOV-3 (ATCC HTB77), the human glioblastoma cell line SF-268 (NCI-503138) and the lung carcinoma cell line NCI-H460 (NCI-503473). In addition, an RKOp27 cell system was used for investigating the cell cycle-specific effect of the substance (M. Schmidt et al. Oncogene 2000, 19(20): 2423-9).
(§4) RKO is a human colon carcinoma line in which expression of the cell cycle inhibitor p27^kiP1 can be induced using the ecdysone expression system and lead to cell cycle arrest specifically in […].
(§5) By contrast, cell cycle-specific substances, such as, for example, tubulin inhibitors, are only cytotoxic when cells are not arrested and the cell cycle is passed through.

Data set [2] has as its system acute myeloid leukaemia cell line LT12. As to the kind of experiment: XTT antiproliferative test, LT12. To be noted: LT12 wild type. It counts as cell-based. From the text: (§6) For further characterization, the compounds 6 and 7 according to the invention were investigated with regard to multidrug-resistant (MDR) cell lines as compared with the nonresistant wild-type cell lines.
(§7) The cell lines which were investigated are the murine cell line L1210 (ATCC CCL219), the acute myeloid leukaemia cell line LT12 (De Vries et al.; University Rotterdam) and the resistant lines L1210/VCR (Asta Medica Laboratory) and LT12/mdr (De Vries et al.; University Rotterdam).

Data set [3] deals with human cervical carcinoma cell line KB/HeLa. As to the kind of experiment: Proliferation test (cellular dehydrogenase activity), KB/HeLa. It counts as cell-based.
From the text: as §1, §2, §3

Data set [4] relates to lung carcinoma cell line NCI-H460. As to the kind of experiment: Proliferation test (cellular dehydrogenase activity), NCI-H460. The conditions noted are these: Homo sapiens. It counts as cell-based.
From the text: as §1, §2, §3

In the next data set the test system is resistant line L1210/VCR. As to the kind of experiment: XTT antiproliferative test, L1210/VCR. It counts as cell-based, murine.
From the text: as §6, §7
In general terms: Tetrazolium assays rely on reduction of a dye to a coloured formazan, in cell work by metabolically active cells.

For data set [5], the system named is RKOp27 human colon carcinoma cells, p27kiP1 induced. As to the kind of experiment: Proliferation test, RKOp27 cell system with induced p27kiP1 expression. It counts as cell-based. To be noted: RKOp27 with induced expression of p27kiP1, read-out: RKOP27ind EC50.
From the text: as §1, §2, §3, §4, §5

The subject of the next data set is murine P388 cell line. The data set is described as follows: XTT antiproliferative test, P388. It counts as cell-based. To be noted: P388 wild type.
From the text: as §6
(§8) The murine P388 cell line (methylcholanthrene-induced lymphoid neoplasm) [R. Supino et al.; Inst. Nazionale per lo Studio e las cura die Tumori; Milan)] and the doxorubicin-resistant P388 cell line (NSC-123127) were also included as test systems.

In another data set the test system is T1, porcine brain tubulin.
T1 construct: In addition to tubulin, the protein used comprises about 15% of associated proteins (MAPs)
As to the kind of experiment: Inhibition of the polymerization of porcine brain tubulin (turbidimetric). It counts as biochemical. The conditions noted are these: porcine brain tubulin with about 15% MAPs, GTP, 37° C. As for the experimental part: b) In an in vitro test, the compounds 1, 2, 4 and 7 were tested for inhibition of the polymerization of porcine brain tubulin. In this test, tubulin purified by polymerization and depolymerization cycles is used (Shelanski et al. Proc. Natl. Acad. Sci. U.S.A. 1973, 70, 765-768 modified according to Vater et al. Acta Histochem. Suppl. 1986, 33, 123-129), which is polymerized by addition of GTP and heating to 37° C. In addition to tubulin, the protein used comprises about 15% of associated proteins (MAPs). The measurement values were determined turbidimetrically according to Gaskin et al. J. Mol. Biol. 89 (1974) 737-755.
Table 3 states the EC50 value of the polymerization inhibition.

In another data set the test system is resistant line LT12/mdr. The data set is described as follows: XTT antiproliferative test, LT12/mdr. The data set is classed as cell-based.
From the text: as §6, §7

The next data set relates to bovine tubulin. The data set is described as follows: Inhibition of the polymerization of bovine tubulin (in vitro). The data set is classed as biochemical. An excerpt:
In this test, tubulin purified by polymerization and depolymerization cycles is used, which is polymerized by addition of GTP and heating.
Table 1 states the %-inhibition values and Table 2 states the EC50 values of polymerization inhibition of tubulin with 30% associated proteins (MAPs).

The subject of data set [6] is ovarian adenocarcinoma cell line SKOV-3. As to the kind of experiment: Proliferation test (cellular dehydrogenase activity), SK-OV-3. The data set is classed as cell-based. To be noted: Homo sapiens.
From the text: as §1, §2, §3

Data set [7] deals with human glioblastoma cell line SF-268. As to the kind of experiment: Proliferation test (cellular dehydrogenase activity), SF-268. It counts as cell-based.
From the text: as §1, §2, §3

For data set [8], the system named is doxorubicin-resistant P388 cell line. The data set is described as follows: XTT antiproliferative test, doxorubicin-resistant P388. The data set is classed as cell-based, murine.
From the text: as §6, §8

A further data set relates to murine cell line L1210. As to the kind of experiment: XTT antiproliferative test, L1210. The conditions noted are these: L1210 wild type. It counts as cell-based.
From the text: as §6, §7

The IC50 is the concentration at which inhibition is half-maximal. Usually melting point stands for the temperature of the solid-liquid transition. For orientation: Inhibition means the change of the read-out against control, counted positive when it falls. A higher Inhibition goes with a response far below the control.

Molecules are shown by their SMILES. Converted amounts (≈) assume the structure as drawn. “And” between values parts separate entries of the source, which are not always exact repeats. Equal values may be shown once.

On to `CC(=O)O[C@H]1C(=O)[C@@]2(C)[C@H]([C@H](OC(=O)c3ccccc3)[C@]3(O)C[C@H](OC(=O)[C@H](O)[C@@H](NC(=O)c4ccccc4)c4ccccc4)C(C)=C1C3(C)C)[C@]1(OC(C)=O)CO[C@@H]1C[C@@H]2O` [Paclitaxel], for which the EC50 in the data set with KB/HeLa cells was 26.9 nM.
For the compound `COc1ccc(C(=O)C=C2c3ccccc3C(=O)c3ccccc32)cc1` [Compound 7, 10-[2-(4-methoxy-phenyl)-2-oxo-ethylidene]-10H-anthracen-9-one], the melting point was in the range of 120 to 122 °C. Besides, the EC50 in data set [1] was found to be 0.027 µg/mL (≈ 0.0793 µM). This compound returned an IC50 in data set [2] (Rattus norvegicus, LT12, XTT) of 0.015 µg/mL (≈ 0.0441 µM). Besides, the “LT12 IC50” value in data set [2] (XTT) is 0.019 µg/mL. Also, in [3], the EC50 was 0.02 µg/mL (≈ 0.0588 µM). In data set [4], this compound had an EC50 of 0.025 µg/mL (≈ 0.0734 µM). Besides, the IC50 in the data set on resistant line L1210/VCR (Mus musculus, L1210, XTT, read-out: L1210VCR IC50) was found to be 0.017 µg/mL (≈ 0.0499 µM). Moreover, in the data set with resistant line L1210/VCR (XTT), the “L1210VCR IC50” value turned out to be 0.018 µg/mL. For the same compound, the EC50 in data set [5] was over 3.16 µg/mL. Moreover, the IC50 in the data set with murine P388 cell line (Mus musculus, P388, XTT) turned out to be 0.014 µg/mL (≈ 0.0411 µM). Moreover, the “P388 IC50” value in the data set with murine P388 cell line (XTT) came to 0.015 µg/mL. Further, the “EC50 of the polymerization inhibition” value with porcine brain tubulin amounted to 0.5 µg/mL. Further, the IC50 in the data set on resistant line LT12/mdr (Rattus norvegicus, LT12, XTT, read-out: LT12mdr IC50) worked out at 0.015 µg/mL (≈ 0.0441 µM). The “LT12mdr IC50” value in the data set on resistant line LT12/mdr (XTT) came to 0.020 µg/mL. Also, the “Inhibition at 10 μg/ml [%]” value in the data set with bovine tubulin (10 μg/ml, tubulin with 30% associated proteins (MAPs), repeat values) is 99.1% and 100.0%. Also, the “EC50 of polymerization inhibition of tubulin” value in the data set with bovine tubulin (bovine tubulin with 30% associated proteins (MAPs)) is 1.38 µg/mL and 1.50 µg/mL. In [6], this compound showed an EC50 of 0.02 µg/mL (≈ 0.0588 µM). Further, in data set [7], the EC50 is 0.02 µg/mL (≈ 0.0588 µM). In data set [8] (Mus musculus, P388, XTT, read-out: P388ADR IC50), the IC50 was 0.016 µg/mL (≈ 0.047 µM). For the same compound, the “P388ADR IC50” value in [8] (XTT) is 0.018 µg/mL. In addition, in the data set on murine cell line L1210 (Mus musculus, L1210, XTT), the IC50 was found to be 0.016 µg/mL (≈ 0.047 µM). In the data set on murine cell line L1210 (XTT), the “L1210 IC50” value was found to be 0.017 µg/mL.
